The test system of the test is food intake. Kind of test: Assay (I) efficacy testing on appetite (food intake), ad libitum fed rat model. The test is classed as in vivo, Sprague Dawley (SD) rats. The note with it: 3 nmol/kg. The essentials:
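Sprague Dawley rats (200–250 g), single-housed under reversed light cycle with free food and water, got one ip, po or sc dose of 0.01–3 mg/kg just before lights-off. Individual food intake recorded hourly for 7 h, then at 24 h and sometimes 48 h; groups of 5–8, Grubbs outliers excluded.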

Starred links: 1 amine or outer side, 2 acyl side, 3 side chain; linkers in the order of their positions; H or OH if unused. Positions of bridges follow the written chain, without caps; N, C: chain ends. Residues, ends and D or L forms follow the SMILES beside them. *: point of attachment. C20 diacid = O=C(O)CCCCCCCCCCCCCCCCCCC(=O)*; γGlu = O=C(O)[C@H](CCC(=O)[*:2])N[*:1]

On to `CC[C@H](C)[C@H](NC(=O)[C@@H]1CCCN1C(=O)CNC(=O)[C@H](Cc1ccccc1)NC(=O)[C@H](CC(N)=O)NC(=O)[C@H](CC(N)=O)NC(=O)[C@H](CO)NC(=O)[C@H](CO)NC(=O)[C@H](Cc1c[nH]cn1)NC(=O)[C@H](Cc1c[nH]cn1)NC(=O)[C@H](CC(C)C)NC(=O)[C@H](Cc1ccccc1)NC(=O)[C@H](CCC(=O)O)NC(=O)[C@H](C)NC(=O)[C@H](CC(C)C)NC(=O)[C@H](CCCNC(=N)N)NC(=O)[C@H](CCC(N)=O)NC(=O)[C@@H](NC(=O)[C@H](C)NC(=O)[C@@H]1CSSC[C@H](NC(=O)[C@H](CCCCN)NC(=O)[C@H](CCC(=O)O)NC(=O)CC[C@H](NC(=O)CCCCCCCCCCCCCCCCCCC(=O)O)C(=O)O)C(=O)N[C@@H](CC(N)=O)C(=O)N[C@@H]([C@@H](C)O)C(=O)N[C@@H](C)C(=O)N[C@@H]([C@@H](C)O)C(=O)N1)[C@@H](C)O)C(=O)N[C@@H](CC(C)C)C(=O)N1CCC[C@H]1C(=O)N1CCC[C@H]1C(=O)N[C@H](C(=O)N[C@@H](CC(N)=O)C(=O)N[C@H](C(=O)NCC(=O)N[C@@H](CO)C(=O)N[C@@H](CC(N)=O)C(=O)N[C@H](C(=O)N[C@@H](Cc1ccc(O)cc1)C(N)=O)[C@@H](C)O)C(C)C)[C@@H](C)O` [Example 26, N-alpha-[(S)-4-Carboxy-4-(19-carboxynonadecanoylamino)butyryl]-Glu-[Glu14,His17]-pramlintide] ({C20 diacid-γGlu}-EKCNTATCATQRLAEFLHHSSNNFGPILPPTNVGSNTY-NH2; disulfide 3-8 (inferred); C-terminus assumed), for which the “Food intake reduction 0-24 h 3 nmol/kg (%)” value is listed as 46% and the “Food intake reduction 24-48 h 3 nmol/kg (%)” value is reported as 39%.

Regarding `CC[C@H](C)[C@H](NC(=O)[C@H](CCC(=O)O)NC(=O)CNC(=O)[C@H](Cc1ccccc1)NC(=O)[C@H](CC(N)=O)NC(=O)[C@H](CC(N)=O)NC(=O)[C@H](CO)NC(=O)[C@H](CO)NC(=O)[C@H](CCCNC(=N)N)NC(=O)[C@H](Cc1c[nH]cn1)NC(=O)[C@H](CC(C)C)NC(=O)[C@H](Cc1ccccc1)NC(=O)[C@H](CCC(=O)O)NC(=O)[C@H](C)NC(=O)[C@H](CC(C)C)NC(=O)[C@H](CCCNC(=N)N)NC(=O)[C@H](CCC(N)=O)NC(=O)[C@@H](NC(=O)[C@H](C)NC(=O)[C@@H]1CSSC[C@H](NC(=O)[C@H](Cc2c[nH]cn2)NC(=O)CC[C@H](NC(=O)CCCCCCCCCCCCCCCCCCC(=O)O)C(=O)O)C(=O)N[C@@H](CC(N)=O)C(=O)N[C@@H]([C@@H](C)O)C(=O)N[C@@H](C)C(=O)N[C@@H]([C@@H](C)O)C(=O)N1)[C@@H](C)O)C(=O)N[C@@H](CC(C)C)C(=O)N[C@@H](CO)C(=O)N[C@@H](CCCNC(=N)N)C(=O)N[C@H](C(=O)N[C@@H](CC(N)=O)C(=O)N[C@H](C(=O)NCC(=O)N[C@@H](CO)C(=O)N[C@@H](CC(N)=O)C(=O)N[C@H](C(=O)N[C@@H](Cc1ccc(O)cc1)C(N)=O)[C@@H](C)O)C(C)C)[C@@H](C)O` [Example 7, N-alpha-[(S)-4-Carboxy-4-(19-carboxynonadecanoylamino)butyryl]-[His1,Glu14,His17,Arg18,Glu25,Ser28,Arg29]-pramlintide] ({C20 diacid-γGlu}-HCNTATCATQRLAEFLHRSSNNFGEILSRTNVGSNTY-NH2; disulfide 2-7 (inferred); C-terminus assumed), the “Food intake reduction 0-24 h 3 nmol/kg (%)” value is given as 53% and the “Food intake reduction 24-48 h 3 nmol/kg (%)” value was determined as 46%.

Values taken from patent US8722849B2, “Polypeptides” (Novo Nordisk A/S, priority 2011, dated 2014).
